Laboratory results as given in PMC10900488, “Synthesis and Evaluation of (Bis)benzyltetrahydroisoquinoline Alkaloids as Antiparasitic Agents” (JACS Au, 2024).
Like-named read-outs stand apart in the source and are kept apart here.

How the values were obtained:
[1] = test system: L. infantum promastigotes; assay: Antipromastigote assay (L. infantum), MTT colorimetric; type: cell-based, Leishmania (L.) infantum; details: 48 h; for IC50: Leishmania infantum, read-out: L. infantum IC50 promastigotes
Method: (§1) Table 1 depicts the antileishmanial (L. infantum) activity evaluation performed against both the amastigote form (evaluated microscopically using an ex vivo intracellular model of mice macrophages) and the promastigote one (using an MTT colorimetric method).[32],[33] The cytotoxicity was evaluated against NCTC cells using an MTT colorimetric method and the selectivity index was determined using the ratio between the CC50 values (NCTC cells) and the IC50 values (amastigotes).[32] […] With respect to the substituents on the C ring, larger, hydrophobic groups conferred greater bioactivity (e.g., 9b–d), whereas small, hydrophilic groups such as a hydroxyl group afford modest to poor bioactivity.
(§2) Leishmania (L.) infantum (MHOM/BR/1972/LD) amastigotes were obtained from golden hamsters (Mesocricetus auratus) spleens following 60-70 days of infection via differential centrifugation. The Stauber method was used to determine the number of parasites.12 […]
Biological activity assays
Antipromastigote Assay (L. infantum)
L. infantum promastigotes (1 × 10^6 cells/well) were added to a 96-well plates. Treatment of the cells with selected compounds (serially diluted 0.14 to 200 μM) was performed in M199 medium supplemented with 0.25% hemin and 10% fetal bovine serum for 48 h at 24 °C. The MTT colorimetric assay was used to determine the activity (IC50) of the compounds. Miltefosine was used as a standard drug and untreated promastigotes were used as a negative control. The half inhibitory concentration (IC50) was determined from a sigmoidal regression of the concentration-response curves generated in GraphPadPrism7. […]

[2] = Mammalian toxicity, MTT colorimetric; type: cell-based, murine; details: mouse
Method: as §1, with “bioactivity. […]” for “bioactivity.”
Murine conjunctive fibroblasts NCTC clone 929 (ATCC) were maintained in 10% foetal calf serum supplemented RPMI-1640 medium (pH 7.2) at 37 °C in a humidified incubator with 5% CO2. […]
(§3) Biological activity assays […]
NCTC cells (6 × 10^4/well) were added to a 96-well plate. Treatments of the cells with selected compounds (serially diluted 1.5 to 200 μM) was performed in a humidified incubator for 96 h at 37 °C and with 5% CO2.
The MTT colorimetric method was used to determine the 50% cytotoxic concentration (CC50) and the selectivity index (CC50 against NCTC cells/IC50 against amastigotes).15 […]
[…] At 6 h and 24 h post-treatment, a 1 mL aliquot was taken for imaging. The cell cycle experiment was preformed twice independently.
Generation of mNG::RAD51 tagged cell line
The single-stranded DNA-binding protein RAD51, associated with DNA Repair, LmxM.28.0550 was tagged with endogenous fluorescent protein mNeonGreen (mNG) at the N-terminus. […]
Primers for constructs and sgRNA were designed using LeishGEdit (http://www.leishGEdit.net).
PCR was at 94 °C for 5 min, followed by 35 cycles at 94 °C (15 sec), 65 °C (15 sec), 72 °C (2 min) then finally 72 °C (1 min).
PCR was at 94 °C for 30 sec, followed by 30 cycles at 94 °C (30 sec), 60 °C (30 sec), 72 °C (30 sec) then finally 72 °C (2 min). […] Combined PCR products were precipitated for 20 min with 10 μL 3M sodium acetate and 300 μL EtOH, pelleted at 14000 min-1 30 min, washed once with 70% EtOH, re-pelleted and resuspended in […]
Promastigotes (1 × 10^7 cells) were combined with PCR products and transfected using the Amaxa Nucleofector II.17 Electroporation was performed using 2 mm cuvettes on the X-100 program, followed by immediate suspension in pre-warmed M199 medium. Successful transfectants were selected with 20 μg mL-1 Puromycin 15 h after transfection, taking 4 days to reach stable growth in culture. mNG::RAD51 nuclear foci studies mNG::RAD51 promastigotes (5 × 10^6 cells mL-1) in 7 mL of M199 medium were treated with 7 μL o f compound (S)-9a or (S)-9b dissolved in DMSO giving a final concentration of 50 μM. Phleomycin was used as a positive control at a final concentration of 25 μg mL-1. At T = 0, 15, 30, 60 min, and 2, 6, 24 h post-treatment a 0.8 mL aliquot was taken for imaging.

[3] = test system: L. infantum amastigotes; assay: Antiamastigote assay (L. infantum), ex vivo intracellular model of mice macrophages, microscopy; type: cell-based, Leishmania (L.) infantum; details: 96 h, read-out: L. infantum IC50 amastigotes
Method: as §1, §2
(§4) Peritoneal macrophages were obtained via washing the peritoneal cavity of BALB/c mice with 10% foetal calf serum supplemented RPMI-1640 medium (pH 7.2). The macrophages were maintained in a humidified incubator at 37 °C and with 5% CO2.
as §3
Antiamastigote Assay (L. infantum)
Peritoneal macrophages (1 × 10^5/well) were added to a 16-well slide chambers (NUNC) and incubated with 5% CO2 at 37 °C. The cells were subsequently infected with L. infantum amastigotes (10:1 amastigotes/macrophage) for 24 h. Treatment of the cells with selected compounds (serially diluted 1.2 to 150 μM) was performed in a humidified incubator for 96 h at 37 °C and with 5% CO2. Untreated cells were used as a negative control and miltefosine was used as a standard drug. The treated cells were fixed on slides with methanol, stained with Giemsa and observed under a light microscope.13 The infection index was used in order to determine the half inhibitory concentration (IC50) (no. infected macrophages × no. amastigotes / total no. […]

[4] = test system: T. cruzi trypomastigotes; assay: Antitrypomastigote assay (T. cruzi), resazurin; type: cell-based, Trypanosoma (T.) cruzi; details: 24 h, read-out: T. cruzi IC50 trypomastigotes
Method: (§5) T. cruzi also assumes several cell morphologies during its lifecycle, which differ between the insect vector and mammalian host. In the latter environment, the parasite transitions between extracellular bloodstream trypomastigotes and intracellular amastigotes; both forms are clinically relevant, particularly during the acute stage of Chagas disease.[34] In this work, antitrypanosomal activity was tested against both the amastigote form (evaluated microscopically using an ex vivo intracellular model using mice macrophages) and the trypomastigote form (using the resazurin in vitro assay).[33],[35] […] In silico predictions of pharmacokinetic profiles were carried out using the SwissADME webtool (see the Supporting Information for details).[36] […]
(§6) […] Cultivation was performed in 2% fetal calf serum supplemented RPMI-1640 medium.
(§7) The trypomastigotes were maintained in a humidified incubator at 37 °C and with 5% CO2. […]
as §3
The half inhibitory concentration (IC50) was determined from a sigmoidal regression of the concentration-response curves generated in GraphPadPrism7. […]
Treatment of the cells with selected compounds (serially diluted 1.2 to 150 μM) was performed in a humidified incubator in RPMI 1640 medium for 24 h at 37 °C and with 5% CO2. Resazurin (0.011% in PBS) was added subsequently to verify parasite viability. Benznidazole was used as a standard drug. The optical density was determined at 570 nm using the FilterMax F5 (Molecular Devices). […]

[5] = test system: T. cruzi amastigotes; assay: Antiamastigote assay (T. cruzi), ex vivo intracellular model using mice macrophages, microscopy; type: cell-based, Trypanosoma (T.) cruzi
Method: as §5, §6, §7, §4, §3
Peritoneal macrophages (1 × 10^5 cells/well) obtained from the peritoneal cavity of BALB/C mice were added to 16-well chambers (NUNC, Thermo Fischer Scientific). The cells were infected with trypomastigotes (10:1 parasites/macrophage) for 2 h. Then treatment of the infected macrophages with selected compounds (serially diluted 1.2 to 100 μM) was performed in a humidified incubator for 48 h at 37 °C and with 5% CO2. The treated cells were fixed on slides using methanol, stained with Giemsa and observed under a light microscope (EVOS M5000, Thermo, USA) with digital image equipment. The infection index was used in order to determine the half inhibitory concentration (IC50) (no. infected macrophages × no. amastigotes / total no.

[6] = Leishmania infantum, Peritoneal macrophage, ± SD, intracellular, peritoneal macrophages
[7] = Trypanosoma cruzi, ± SD, resazurin
[8] = Trypanosoma cruzi, Peritoneal macrophage, 48 h, ± SD, read-out: T. cruzi IC50 amastigotes
[9] = ± SD, NCTC cells, MTT, 96 h, read-out: CC50
[10] = Leishmania infantum, Peritoneal macrophage

IC50 ([1]; ± SD, MTT) [µM] | IC50 [3, 6] [µM] | IC50 [4, 7] [µM] | IC50 [5, 8] [µM] | SMILES | CC50 at 96 h [2] [µM] | other results
36.2 ± 5.2 | > 150 | 124 ± 2.3 | > 100 | COc1cc2c(cc1OC)[C@H](Cc1ccc(O)cc1)N(C)CC2 [(S)-10b, (+)-armepavine] | > 200 | 
0.7 ± 0.01 | > 150 | 3.7 ± 3.6 | > 100 | COc1cc2c(cc1OC)[C@H](Cc1ccc(Oc3cc(C[C@H]4c5cc(OC)c(OC)cc5CCN4C)ccc3OC)cc1)N(C)CC2 [(S,S)-11, (+)-O-methylthalibrine] | 11.4 ± 0.2 | 
1.1 ± 0.5 | > 150 | 7.3 ± 1.5 | > 100 | COc1ccc(COc2ccc(C[C@@H]3c4cc(OC)c(OC)cc4CCN3C)cc2Oc2ccc(C[C@@H]3c4cc(OC)c(OC)cc4CCN3C)cc2)cc1 [(R,R)-12] | 13.9 ± 1.6 | 
0.4 ± 0.2 | > 150 | 1.3 ± 0.7 | > 100 | COc1ccc(COc2ccc(C[C@@H]3c4cc(OC)c(OC)cc4CCN3C)cc2Oc2ccc(C[C@H]3c4cc(OC)c(OC)cc4CCN3C)cc2)cc1 [(R,S)-12] | 2.7 ± 1.6 | L. infantum IC50 promastigotes ([1]; ± SD, MTT): submicromolar
5.2 ± 1.3 | > 150 | 11.1 ± 1.7 | 3.3 ± 0.01 | COc1ccc(COc2ccc(C[C@H]3c4cc(OC)c(OC)cc4CCN3C)cc2Br)cc1 [(S)-9c] | 6.3 ± 2.3 | 
3.3 ± 1.6 | 13.1 ± 0.8 | 72.3 ± 3 |  | COc1cc2c(cc1OC)[C@@H](Cc1ccc(OC)c(OCc3ccccc3)c1)N(C)CC2 [(R)-9b] | 57.3 ± 3.3 | 
0.7 ± 0.1 | > 150 | 1.7 ± 0.3 | > 100 | COc1ccc(COc2ccc(C[C@H]3c4cc(OC)c(OC)cc4CCN3C)cc2Oc2ccc(C[C@@H]3c4cc(OC)c(OC)cc4CCN3C)cc2)cc1 [(S,R)-12] | 4.7 ± 1.7 | L. infantum IC50 promastigotes ([1]; ± SD, MTT): submicromolar
3.7 ± 0.2 | < 10 | < 10 | 3.2 ± 0.5 | COc1cc2c(cc1OC)[C@H](Cc1ccc(OCc3ccccc3)cc1)N(C)CC2 [(S)-9d] | 6.6 ± 1.5 | IC50 ([3]; ± SD, intracellular, peritoneal macrophages): 7.5 ± 2.2 µM; IC50 ([4]; ± SD, resazurin): 7.6 ± 0.4 µM

The next lines start with the molecule.

SMILES | IC50 ([1]; ± SD, MTT) [µM] | IC50 [3, 6] [µM] | IC50 [4, 7] [µM] | IC50 [5, 8] [µM] | CC50 at 96 h [2] [µM] | other results
COc1cc2c(cc1OC)[C@@H](Cc1ccc(O)c(Oc3ccc(C[C@H]4c5cc(OC)c(OC)cc5CCN4C)cc3)c1)N(C)CC2 [(S,R)-13] | 5.7 ± 1.3 | 3.6 ± 0.3 | 4.2 ± 4.8 | 4.4 ± 0.4 | 15.6 ± 1.6 | 
COc1cc2c(cc1OC)[C@@H](Cc1ccc(Oc3cc(C[C@@H]4c5cc(OC)c(OC)cc5CCN4C)ccc3O)cc1)N(C)CC2 [(R,R)-13, (–)-dauricine] | 3.2 ± 1.1 | 3.7 ± 0.6 | 3.7 ± 2.9 | > 100 | 7 ± 1 | 
COc1cc2c(cc1OC)[C@@H](Cc1ccc(OC)c(Oc3ccc(C[C@H]4c5cc(OC)c(OC)cc5CCN4C)cc3)c1)N(C)CC2 [(R,S)-11] | 0.6 ± 0.1 | > 150 | 6.5 ± 2.1 | > 100 | 7.3 ± 0.7 | 
COc1cc2c(cc1OC)[C@H](Cc1ccc(Oc3cc(C[C@H]4c5cc(OC)c(OC)cc5CCN4C)ccc3O)cc1)N(C)CC2 [(S,S)-13, (+)-dauricine] | 5.5 ± 0.6 | > 150 | 5.1 ± 4.8 | 2.3 ± 1.1 | 15.9 ± 0.8 | 
COc1ccc(C[C@H]2c3cc(OC)c(OC)cc3CCN2C)cc1O [(S)-10a, (+)-laudanidine] |  |  |  |  |  | IC50 [1]: 95.4 ± 2 µM; CC50 at 96 h [2, 9]: > 200 µM; IC50 [3, 10]: > 150 µM; IC50 ([4]; Trypanosoma cruzi): > 150 µM; IC50 ([5]; Trypanosoma cruzi, Peritoneal macrophage, 48 h, read-out: T. cruzi IC50 amastigotes, ± SD): < 10 µM; IC50 ([5]; read-out: T. cruzi IC50 amastigotes, ± SD, peritoneal macrophages, 48 h): 5.9 ± 0.9 µM
COc1ccc(C[C@@H]2c3cc(OC)c(OC)cc3CCN2C)cc1O [(R)-10a, (–)-laudanidine] |  |  |  |  |  | IC50 [1]: 30.2 ± 4.8 µM; CC50 at 96 h [2, 9]: > 200 µM; IC50 [3, 10]: > 150 µM; IC50 ([4]; Trypanosoma cruzi): > 150 µM
O=C(Cn1ccnc1[N+](=O)[O-])NCc1ccccc1 [benznidazole, reference compound] |  |  | 12.8 ± 0.7 | 5 ± 1.5 | > 200 | 
CCCCCCCCCCCCCCCCOP(=O)([O-])OCC[N+](C)(C)C [miltefosine, reference compound] |  | 6.5 ± 3 |  |  | 120 ± 4.2 | 
